Results taken from US8293781B2, “Indole derivatives having cPLA2 inhibiting activity and applications and production methods of the same” (Daiichi Sankyo Company, Limited, priority 2007, dated 2012).
pIC50: −log10 of the molar value. Counter-ions that a name gives are not always drawn.

Biological target: T1, cPLA2 crudely purified from the cytoplasm fraction of U937 (Homo sapiens, UniProt P47712)
T1 construct: cPLA2 crudely purified from the cytoplasm fraction of U937; endogenous in cells; host or cells: U937 cells (cytoplasm fraction, crude purification)
T1 sequence (P47712 1-749): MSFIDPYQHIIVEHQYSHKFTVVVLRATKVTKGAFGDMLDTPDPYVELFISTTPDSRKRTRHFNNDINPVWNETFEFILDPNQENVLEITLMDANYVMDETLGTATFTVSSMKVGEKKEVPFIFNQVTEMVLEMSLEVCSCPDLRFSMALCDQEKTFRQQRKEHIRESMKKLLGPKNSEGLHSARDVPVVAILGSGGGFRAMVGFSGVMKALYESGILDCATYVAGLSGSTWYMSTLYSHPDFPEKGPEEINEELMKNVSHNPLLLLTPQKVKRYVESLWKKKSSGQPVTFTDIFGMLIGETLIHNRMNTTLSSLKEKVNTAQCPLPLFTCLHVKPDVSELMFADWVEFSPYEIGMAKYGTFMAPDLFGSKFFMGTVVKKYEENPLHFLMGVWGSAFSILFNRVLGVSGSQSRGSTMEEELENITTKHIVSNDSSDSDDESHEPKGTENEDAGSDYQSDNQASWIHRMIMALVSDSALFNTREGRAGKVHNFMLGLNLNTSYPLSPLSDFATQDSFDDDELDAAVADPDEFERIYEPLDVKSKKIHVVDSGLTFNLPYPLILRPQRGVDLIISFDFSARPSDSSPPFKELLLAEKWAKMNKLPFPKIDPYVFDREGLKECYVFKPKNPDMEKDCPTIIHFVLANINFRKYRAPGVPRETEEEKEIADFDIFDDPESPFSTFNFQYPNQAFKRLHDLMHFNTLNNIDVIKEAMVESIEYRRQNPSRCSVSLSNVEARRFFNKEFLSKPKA
Assay: Measurement of cPLA2 inhibitory activity (release of [14C]-arachidonic acid from phosphatidyl choline liposome)
Type: biochemical
Conditions: cPLA2 from U937 cytoplasm fraction, [14C]arachidonyl-phosphatidyl choline liposome, 37° C., 60 minutes; read-out: cPLA2 inhibitory activity, 50% inhibiting concentration IC50
Summary of the method: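 The read-out is radioactivity from extracted [14C]-arachidonic acid, freed over 60 min at 37° C from liposomes of 14C-arachidonyl phosphatidylcholine (10 μM PC in the added solution). Buffer was 50 mM HEPES pH 7.5 with Ca2+, DTT, NaCl and BSA. IC50 was derived from inhibition relative to enzyme control minus no-enzyme control.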

SMILES | pIC50
O=C(O)/C=C/c1ccc2c(c1)c(CCc1ccccn1)cn2-c1ccccc1 [Example 263, (2E)-3-[1-phenyl-3-(2-pyridin-2-ylethyl)-1H-indol-5-yl]-2-propenoic acid] | 5.84
O=C(O)CCc1ccc2c(c1)c(CCc1ccccn1)cn2-c1ccccc1 [Example 264, 3-[1-phenyl-3-(2-pyridin-2-ylethyl)-1H-indol-5-yl]propanoic acid] | 6.47
O=C(O)/C=C/c1ccc2c(c1)c(CCc1ccccn1)cn2-c1ccc(OCc2ccccc2)cc1 [Example 267, (2E)-3-{1-[4-(benzyloxy)phenyl]-3-(2-pyridin-2-ylethyl)-1H-indol-5-yl}-2-propenoic acid] | 6.96
O=C(O)CCc1ccc2c(c1)c(CCc1ccccn1)cn2-c1ccc(OCc2ccccc2)cc1 [Example 268, 3-{1-[4-(benzyloxy)phenyl]-3-(2-pyridin-2-ylethyl)-1H-indol-5-yl}propanoic acid] | 7.72
O=C(O)CCc1ccc2c(c1)c(CCc1ccccn1)cn2-c1ccc(O)cc1 [Example 269, 3-[1-(4-hydroxyphenyl)-3-(2-pyridin-2-ylethyl)-1H-indol-5-yl]propanoic acid hydrochloride] | 7.11
O=C(O)/C=C/c1ccc2c(c1)c(CCc1ccccn1)cn2-c1ccc(O)cc1 [Example 271, (2E)-3-[1-(4-hydroxyphenyl)-3-(2-pyridin-2-ylethyl)-1H-indol-5-yl]-2-propenoic acid] | 6.45
O=C(O)CCc1ccc2c(c1)c(CCc1ccccn1)cn2-c1ccc(Oc2ccccc2)cc1 [Example 275, 3-[1-(4-phenoxyphenyl)-3-(2-pyridin-2-ylethyl)-1H-indol-5-yl]propanoic acid hydrochloride] | 7.92
O=C(O)CCc1ccc2c(c1)c(CCc1ccccn1)cn2-c1ccc(OC(F)F)cc1 [Example 277, 3-{1-[4-(difluoromethoxy)phenyl]-3-(2-pyridin-2-ylethyl)-1H-indol-5-yl}propanoic acid hydrochloride] | 7.01
O=C(O)CCc1ccc2c(c1)c(CCc1ccccn1)cn2-c1ccc(OCCO)cc1 [Example 279, 3-{1-[4-(2-hydroxyethoxy)phenyl]-3-(2-pyridin-2-ylethyl)-1H-indol-5-yl}propanoic acid hydrochloride] | 6.61
O=C(O)CCc1ccc2c(c1)c(CCc1ccccn1)cn2-c1cccc(OCc2ccccc2)c1 [Example 281, 3-{1-[3-(benzyloxy)phenyl]-3-(2-pyridin-2-ylethyl)-1H-indol-5-yl}propanoic acid hydrochloride] | 6.56
O=C(O)CCc1ccc2c(c1)c(CCc1ccccn1)cn2-c1cccc(O)c1 [Example 282, 3-[1-(3-hydroxyphenyl)-3-(2-pyridin-2-ylethyl)-1H-indol-5-yl]propanoic acid hydrochloride] | 6.24
O=C(CCc1ccc2c(c1)c(CCc1ccccc1)cn2-c1ccc(O)cc1)NO [Example 284, N-hydroxy-3-[1-(4-hydroxyphenyl)-3-(2-phenylethyl)-1H-indol-5-yl]propanamide] | < 5.52
O=C(CCc1ccc2c(c1)c(CCc1ccccc1)cn2-c1ccc(OC(F)F)cc1)NO [Example 286, 3-{1-[4-(difluoromethoxy)phenyl]-3-(2-phenylethyl)-1H-indol-5-yl}-N-hydroxypropanamide] | < 5.52
O=C(O)CCc1ccc2c(c1)c(CCc1ccccc1)cn2-c1cc(F)c(OCc2ccccc2)c(F)c1 [Example 288, 3-{1-[4-(benzyloxy)-3,5-difluorophenyl]-3-(2-phenylethyl)-1H-indol-5-yl}propanoic acid 2-amino-2-(hydroxymethyl)propane-1,3-diol salt (1:1)] | 6.58
O=C(O)CCc1ccc2c(c1)c(CCc1ccccc1)cn2-c1cc(F)c(O)c(F)c1 [Example 289, 3-[1-(3,5-difluoro-4-hydroxyphenyl)-3-(2-phenylethyl)-1H-indol-5-yl]propanoic acid] | 6.74
O=C(O)CCc1ccc2c(c1)c(CCc1ccccc1)cn2-c1ccc(COc2ccc(F)cc2)cc1 [Example 291, 3-[1-{4-[(4-fluorophenoxy)methyl]phenyl}-3-(2-phenylethyl)-1H-indol-5-yl]propanoic acid 2-amino-2-(hydroxymethyl)propane-1,3-diol salt (1:1)] | 7.08

SMILES | pIC50
O=C(O)CCc1ccc2c(c1)c(CCc1ccccc1)cn2-c1ccc(COC(F)F)cc1 [Example 293, 3-[1-{4-[(difluoromethoxy)methyl]phenyl}-3-(2-phenylethyl)-1H-indol-5-yl]propanoic acid] | 6.72
CC(O)c1ccc(-n2cc(CCc3ccccc3)c3cc(CCC(=O)O)ccc32)cc1 (centres unmarked) [Example 295, 3-{1-[4-(1-hydroxyethyl)phenyl]-3-(2-phenylethyl)-1H-indol-5-yl}propanoic acid 2-amino-2-(hydroxymethyl)propane-1,3-diol salt (1:1)] | 6.12
O=C(O)CCc1ccc2c(c1)c(CCc1ccccn1)cn2-c1cc(F)c(OCc2ccccc2)c(F)c1 [Example 297, 3-{1-[4-(benzyloxy)-3,5-difluorophenyl]-3-(2-pyridin-2-ylethyl)-1H-indol-5-yl}propanoic acid] | 6.35
O=C(O)CCc1ccc2c(c1)c(CCc1ccccn1)cn2-c1cc(F)c(O)c(F)c1 [Example 298, 3-[1-(3,5-difluoro-4-hydroxyphenyl)-3-(2-pyridin-2-ylethyl)-1H-indol-5-yl]propanoic acid hydrochloride] | 6.03
O=C(O)CCc1ccc2c(c1)c(CCc1ccccn1)cn2-c1ccc(COc2ccc(F)cc2)cc1 [Example 300, 3-[1-{4-[(4-fluorophenoxy)methyl]phenyl}-3-(2-pyridin-2-ylethyl)-1H-indol-5-yl]propanoic acid hydrochloride] | 6.42
O=C(O)CCc1ccc2c(c1)c(CCc1ccccn1)cn2-c1ccc(COC(F)F)cc1 [Example 302, 3-[1-{4-[(difluoromethoxy)methyl]phenyl}-3-(2-pyridin-2-ylethyl)-1H-indol-5-yl]propanoic acid hydrochloride] | 6.12
CC(O)c1ccc(-n2cc(CCc3ccccn3)c3cc(CCC(=O)O)ccc32)cc1 (centres unmarked) [Example 304, 3-{1-[4-(1-hydroxyethyl)phenyl]-3-(2-pyridin-2-ylethyl)-1H-indol-5-yl}propanoic acid hydrochloride] | < 5.52
O=C(O)CCc1ccc2c(c1)c(CCc1ccccc1)cn2-c1ccc(CN2CCCC2)cc1 [Example 306, 3-{3-(2-phenylethyl)-1-[4-(pyrrolidin-1-ylmethyl)phenyl]-1H-indol-5-yl}propanoic acid] | 6.06
O=C(O)CCc1ccc2c(c1)c(CCc1ccccc1)cn2-c1ccc(CN2CCOCC2)cc1 [Example 308, 3-{1-[4-(morpholin-4-ylmethyl)phenyl]-3-(2-phenylethyl)-1H-indol-5-yl}propanoic acid] | 6.83
CN(C)C(=O)c1ccc(-n2cc(CCc3ccccc3)c3cc(CCC(=O)O)ccc32)cc1 [Example 310, 3-[1-{4-[(dimethylamino)carbonyl]phenyl}-3-(2-phenylethyl)-1H-indol-5-yl]propanoic acid] | 6.45
O=C(O)CCc1ccc2c(c1)c(CCc1ccccc1)cn2-c1ccc(C(=O)N2CCOCC2)cc1 [Example 312, 3-{1-[4-(morpholin-4-ylcarbonyl)phenyl]-3-(2-phenylethyl)-1H-indol-5-yl}propanoic acid] | 6.39
CN(C)C(=O)c1cccc(-n2cc(CCc3ccccc3)c3cc(CCC(=O)O)ccc32)c1 [Example 314, 3-{1-[3-(dimethylcarbamoyl)phenyl]-3-(2-phenylethyl)-1H-indol-5-yl}propanoic acid] | < 5.52
O=C(O)CCc1ccc2c(c1)c(CCc1ccccc1)cn2-c1cccc(C(=O)N2CCOCC2)c1 [Example 316, 3-{1-[3-(morpholin-4-ylcarbonyl)phenyl]-3-(2-phenylethyl)-1H-indol-5-yl}propanoic acid] | < 5.52
CN(C)S(=O)(=O)c1ccc(-n2cc(CCc3ccccc3)c3cc(CCC(=O)O)ccc32)cc1 [Example 318, 3-[1-{4-[(dimethylamino)sulfonyl]phenyl}-3-(2-phenylethyl)-1H-indol-5-yl]propanoic acid] | 6.57
O=C(O)CCc1ccc2c(c1)c(CCc1ccccc1)cn2-c1ccc(S(=O)(=O)N2CCOCC2)cc1 [Example 320, 3-{1-[4-(morpholin-4-ylsulfonyl)phenyl]-3-(2-phenylethyl)-1H-indol-5-yl}propanoic acid] | 6.59
CN(C)S(=O)(=O)c1cccc(-n2cc(CCc3ccccc3)c3cc(CCC(=O)O)ccc32)c1 [Example 322, 3-[1-{3-[(dimethylamino)sulfonyl]phenyl}-3-(2-phenylethyl)-1H-indol-5-yl]propanoic acid] | 5.72
